Data as given in patent publication US6875760B2 (Novo Nordisk A/S, priority 1999, dated 2005).

Legend:
[1] = biological target: T1, human glucagon receptor (Homo sapiens, UniProt P47871); assay: Glucagon Binding Assay (III); details: Glu Bd Assay (III) IC50 (nM), BHK cell membranes, WGA SPA beads, 125I-glucagon
T1 construct: expressed in transfected cells; host or cells: BHK (baby hamster kidney) cells
Method in brief: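 Membranes from BHK cells transfected with the human receptor, prepared at 4 °C, were used in a WGA-bead scintillation proximity binding format. Plates were shaken for 4 hours, left to settle 8–48 hours and then counted. Non-specific binding was defined with 500 nM glucagon.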

T1 sequence (P47871 26-477): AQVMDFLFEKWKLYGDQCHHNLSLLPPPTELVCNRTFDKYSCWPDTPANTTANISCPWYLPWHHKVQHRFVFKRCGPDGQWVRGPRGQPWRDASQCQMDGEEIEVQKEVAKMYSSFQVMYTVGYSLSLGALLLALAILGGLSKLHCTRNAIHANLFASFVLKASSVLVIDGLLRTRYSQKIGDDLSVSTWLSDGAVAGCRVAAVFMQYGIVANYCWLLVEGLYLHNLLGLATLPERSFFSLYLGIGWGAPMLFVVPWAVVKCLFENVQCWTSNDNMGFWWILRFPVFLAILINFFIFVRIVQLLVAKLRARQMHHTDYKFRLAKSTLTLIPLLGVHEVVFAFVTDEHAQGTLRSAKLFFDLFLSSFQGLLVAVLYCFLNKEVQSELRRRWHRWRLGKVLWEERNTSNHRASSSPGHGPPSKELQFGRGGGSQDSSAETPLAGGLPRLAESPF

Compound: CC(C)(C)[C@H]1CC[C@H](N(Cc2ccc(C(=O)NCCC(=O)O)cc2)C(=O)Nc2ccc(OC(F)(F)F)cc2)CC1 [Example 92, 3-{4-[1-(4-trans-tert-Butylcyclohexyl)-3-(4-trifluoromethoxyphenyl)ureidomethyl]benzoylamino}propionic acid]
- melting point: 152 to 154 °C
- IC50 [1]: 47 nM
